Reference: US8535661B2, “Enzymatically active compositions for suppressing sulfide generation and methods of use thereof” (LCP Tech Holdings LLC, priority 2007, dated 2013)

Columns and labels:
[1] = tested on: bacteria; experiment: Bacterial counts in treated contaminated metalworking fluid samples; format: cell-based
Procedure: (§1) A used metalworking fluid from a Midwest automotive plant and a soluble oil having a high sulfate content were used to prepare synthetic effluent by combining about 200 ml of the oil with about four gallons (about 15 L) of water and one gallon (about 3.84 L) of the contaminated metal working fluid. The mixture was allowed to stand for about ten days and smelled of hydrogen sulfide by the end of this period. The mixture was then stirred and 15 samples (about 500 mL each) were removed and placed in separate containers. The containers were allowed to stand, open to the air, for about 4 additional days, after which time the aerobic bacterial count in each of the sample was measured using Biosan BF test strips. All of the samples contained >10′ bacteria/mL and smelled of hydrogen sulfide, indicating the presence of anaerobic bacteria, as well. The 15 samples, at neutral pH, were then individually treated with different biocides and combinations of biocides with the enzymatic composition of Example 1. The bacterial and yeast/mold counts in each sample were monitored over about 14 days.

[2] = tested on: yeast and mold; experiment: Mold and yeast counts in treated contaminated metalworking fluid samples; format: cell-based
Procedure: as §1

[3] = tested on: SRB; experiment: Hydrogen sulfide from containers with SRB-contaminated sugar beet pond water
Procedure: A leachate from a sugar beet pond contaminated with SRB was fed into three 5-gallon containers filled with a nutrient source, sulfate and water. The contents in each container consisted of about 500 mL of SRB-contaminated sugar beet pond water, about 3.84 liters of vinegar (about 5% acetic acid content) about 450 mL of 0.5 N sulfuric acid, about 150 g of sodium hydroxide to adjust the pH to about 6.8, the normal pH and enough additional water to achieve a total volume of about 5 gallons. Nitrogen gas was continuously passed through the each container to eliminate any oxygen and to provide a gas flow in which to measure hydrogen sulfide generated in each container. About 500 ppm of a 10% solution of sodium hypochlorite was added to one of the reactors. An identical amount hypochlorite was added to another reactor, along with about 500 ppm of the composition of Example 1. About 500 ppm of the composition of Example 1 was added to the third container (without hypochlorite). The hydrogen sulfide level in the nitrogen gas stream from each container was monitored over time. The container treated only with the composition of the invention went to zero hydrogen sulfide production over about seven days, and stayed at zero for about four days thereafter. The container treated with bleach alone went to zero within six days and remained at zero for less than one day. […] The hydrogen sulfide concentration from the container treated with both hypochlorite and the composition of Example 1 fell to zero over about 13 days and remained at zero for greater than eight days. From the data in FIG. 4, it is clear that the enzymatically active compositions of the invention can work cooperatively with inexpensive biocidal compositions such as hypochlorite to effectively extend the useful lifetime of inexpensive biocides such as hypochlorite.

[4] = tested on: Sulfide-Producing Bacteria; conditions: reported biocide treatment levels; cited from earlier work
[5] = tested on: Desulfovibrio vulgaris; experiment: Sulfide concentration in nitrogen stream from Desulfovibrio vulgaris cultures; format: cell-based; conditions: about 10 mM sodium nitrate; decrease after about 9 hours
Procedure: Laboratory studies were conducted by growing cultures of Desulfovibrio vulgaris, available from NCIMB Ltd, Aberdeen, Scotland, UK as NCIMB 8303 (see Postgate, J. R., The Sulfate-Reducing Bacteria, 2nd Ed., Cambridge University Press, Cambridge; 1984) in 100 mL aliquots of mCSB containing 12 mM sodium sulfate, 30 mM sodium lactate and 10 mM sodium nitrate in one-liter serum bottles sealed with butyl rubber stoppers, which were flushed with nitrogen and autoclaved at about 120° C. prior to use. A 2% inoculum of freshly prepared D. vulgaris culture was added to the medium in each bottle and incubated at about 30° C. Each culture was grown to mid-log phase to achieve a sulfide concentration of about 12.2±1.4 mM before adding about 25 mL of an aqueous 100 ppm solution of the enzymic composition of Example 1 to each culture. Each culture was then sparged with 99.99% pure nitrogen gas and the pH was adjusted to 6.4 using a dilute solution of nitric acid. The sulfide concentration in the nitrogen stream from each culture bottle was monitored as a function of time.

[6] = about 500 ppm of each agent (hypochlorite as 10% solution), pH about 6.8

Row | Compound | Bacterial Counts ([1]; Day 0) | Bacterial Counts ([1]; Day 1) | Bacterial Counts ([1]; Day 3) | Bacterial Counts ([1]; Day 4) | Bacterial Counts ([1]; Day 6) | Bacterial Counts ([1]; Day 8) | Bacterial Counts ([1]; Day 10) | Bacterial Counts ([1]; Day 12) | Bacterial Counts ([1]; Day 14) | Mold and Yeast Counts ([2]; Day 0) | Mold and Yeast Counts ([2]; Day 1) | Mold and Yeast Counts ([2]; Day 3) | Mold and Yeast Counts ([2]; Day 4) | Mold and Yeast Counts ([2]; Day 6) | Mold and Yeast Counts ([2]; Day 8) | Mold and Yeast Counts ([2]; Day 10) | Mold and Yeast Counts ([2]; Day 12) | Mold and Yeast Counts ([2]; Day 14) | Minimum Concentration that prevents sulfide production [4] | also measured
1 | tetrakis(hydroxymethyl)phosphonium sulfate [Sample 13] | >10^7 bacteria/mL | <100 bacteria/mL | <100 bacteria/mL | 100 bacteria/mL | 1000 bacteria/mL | 1000 bacteria/mL | >10^5 bacteria/mL | 10^6 bacteria/mL | >10^7 bacteria/mL | 10^3 | 0 | 0 | 0 | 0 | 100 | 10 | 100 | 10^3 |  | 
2 | OCl [hypochlorite, sodium hypochlorite] |  |  |  |  |  |  |  |  |  |  |  |  |  |  |  |  |  |  |  | time hydrogen sulfide stayed at zero [3, 6]: less than one; time to zero hydrogen sulfide production [3, 6]: six; additional suppression of hydrogen sulfide production ([3]; after another identical dose of hypochlorite): less than one
3 | CCCCNC(=O)OCC#CI [Sample 8, 3-iodo-2-propynyl butyl carbamate] | >10^7 bacteria/mL | <100 bacteria/mL | <100 bacteria/mL | 100 bacteria/mL | 100 bacteria/mL | 100 bacteria/mL | 10^4 bacteria/mL | 10^5 bacteria/mL | >10^7 bacteria/mL | 10^4 | 0 | 0 | 0 | 100 | 10^3 | 10^3 | 10^3 | 10^3 |  | 
4 | OCCN1CN(CCO)CN(CCO)C1 [Sample 3, hexahydro-1,3,5-tris(2-hydroxyethyl)-s-triazine] | >10^7 bacteria/mL | <100 bacteria/mL | <100 bacteria/mL | 100 bacteria/mL | 1000 bacteria/mL | 10^4 bacteria/mL | >10^7 bacteria/mL | 10^6 bacteria/mL | >10^7 bacteria/mL | 10^4 | 0 | 0 | 0 | 10 | 10 | 10^3 | 10^4 | 10^3 |  | 
5 | O=NO [Nitrite] |  |  |  |  |  |  |  |  |  |  |  |  |  |  |  |  |  |  | 230 mg/L | 
6 | O=[N+]([O-])[O-].[Na+] [sodium nitrate] |  |  |  |  |  |  |  |  |  |  |  |  |  |  |  |  |  |  |  | extent of decrease in sulfide production relative to the decrease observed with the composition of Example 1 [5]: 10-15%
7 | OCCN1CN(CCO)CN(CCO)C1 [Sample 4, hexahydro-1,3,5-tris(2-hydroxyethyl)-s-triazine] | >10^7 bacteria/mL | <100 bacteria/mL | 100 bacteria/mL | 100 bacteria/mL | 1000 bacteria/mL | 10^5 bacteria/mL | >10^7 bacteria/mL | >10^7 bacteria/mL | >10^7 bacteria/mL | 10^3 | 0 | 0 | 0 | 0 | 100 | 10 | 100 | 100 |  | 
8 | tetrakis(hydroxymethyl)phosphonium sulfate [Sample 14] | >10^7 bacteria/mL | <100 bacteria/mL | 100 bacteria/mL | 100 bacteria/mL | 1000 bacteria/mL | 10^5 bacteria/mL | >10^7 bacteria/mL | >10^7 bacteria/mL | >10^7 bacteria/mL | 10^4 | 0 | 0 | 0 | 100 | 10^3 | 10^3 | 10^3 | 10^3 |  | 
9 | CCCCNC(=O)OCC#CI [Sample 7, 3-iodo-2-propynyl butyl carbamate] | >10^7 bacteria/mL | <100 bacteria/mL | <100 bacteria/mL | 100 bacteria/mL | 100 bacteria/mL | 100 bacteria/mL | 1000 bacteria/mL | 10^4 bacteria/mL | 10^5 bacteria/mL | 10^3 | 0 | 0 | 0 | 0 | 100 | 10 | 100 | 10^3 |  | 
10 | O=CCCCC=O [Glutaraldehyde] |  |  |  |  |  |  |  |  |  |  |  |  |  |  |  |  |  |  | 500 mg/L | 
11 | Benzalkonium chloride |  |  |  |  |  |  |  |  |  |  |  |  |  |  |  |  |  |  | 50 mg/L | 
12 | [O]=[Mo](=[O])([O-])[O-] [Molybdate] |  |  |  |  |  |  |  |  |  |  |  |  |  |  |  |  |  |  | 120 mg/L | 
